Data: ChEMBL document CHEMBL5154778, “Discovery and Structure-Based Optimization of Novel Atg4B Inhibitors for the Treatment of Castration-Resistant Prostate Cancer” (J Med Chem, 2022)
The source made the active and inactive calls. No cut-off for these calls is given here.

Tests used:
Cysteine protease ATG4B [1] = biological target: T1, Cysteine protease ATG4B (Homo sapiens, UniProt Q9Y4P1); experiment: Inhibition of recombinant ATG4B (unknown origin) expressed in Escherichia coli BL21(DE3) pLysS cells using LC3-GST as substrate incubated for 3 hrs by coomassie brilliant blue staining based assay
T1 sequence (Q9Y4P1 whole entry): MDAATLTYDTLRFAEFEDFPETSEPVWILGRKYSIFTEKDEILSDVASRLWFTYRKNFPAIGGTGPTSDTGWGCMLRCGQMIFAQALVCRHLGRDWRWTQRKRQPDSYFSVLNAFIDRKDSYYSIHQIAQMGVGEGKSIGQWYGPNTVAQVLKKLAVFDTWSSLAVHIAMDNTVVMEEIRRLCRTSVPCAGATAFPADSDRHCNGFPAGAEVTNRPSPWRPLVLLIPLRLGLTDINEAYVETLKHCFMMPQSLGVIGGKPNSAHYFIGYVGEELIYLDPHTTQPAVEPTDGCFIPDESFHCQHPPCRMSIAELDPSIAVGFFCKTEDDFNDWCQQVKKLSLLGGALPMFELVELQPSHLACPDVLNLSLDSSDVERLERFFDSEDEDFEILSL

Phospholipase A2 = Phospholipase A2 (Homo sapiens, UniProt P04054); experiment: Inhibition of PLA2 (unknown origin)
Chain of Phospholipase A2 (P04054 whole entry): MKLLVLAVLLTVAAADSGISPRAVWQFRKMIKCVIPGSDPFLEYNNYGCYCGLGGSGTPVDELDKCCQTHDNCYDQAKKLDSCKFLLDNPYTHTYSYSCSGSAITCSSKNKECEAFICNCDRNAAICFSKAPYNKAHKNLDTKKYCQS

Homo sapiens = species: Homo sapiens; experiment: Selectivity ratio of IC50 for inhibition of PLA2 (unknown origin) to IC50 for inhibition of recombinant ATG4B (unknown origin) expressed in Escherichia coli BL21(DE3) pLysS cells
LNCaP [2] = experiment: Induction of autophagy in human LNCaP cells assessed as increase in GABARAP2 level at 10 uM preincubated for 2 hrs followed by medium change into aminoacid free medium for 3 hrs by immunoblotting analysis; assay type: functional, cell-based; conditions: time 5.0 hrs
LNCaP [3] = experiment: Anticancer activity against human LNCaP cells assessed as reduction in cell viability incubated for 72 hrs by alamar blue assay; assay type: functional, cell-based; conditions: DDE = dose-dependent effect
LNCaP [4] = experiment: Induction of apoptosis in human LNCaP cells assessed PARP cleavage at 10 uM incubated for 24 hrs by immunoblotting analysis; assay type: functional, cell-based
LNCaP [5] = experiment: Induction of autophagy in human LNCaP cells assessed as increase in Ser403-phosphorylated P62 level at 1 to 10 uM incubated for 24 hrs by Western blot analysis; assay type: functional, cell-based; conditions: dose 1-10 µM
LNCaP [6] = experiment: Induction of autophagy in human LNCaP cells assessed as increase in LC3-2 level at 1 to 10 uM incubated for 24 hrs by Western blot analysis; assay type: functional, cell-based; conditions: dose 1-10 µM
LNCaP [7] = experiment: Induction of apoptosis in human LNCaP cells transfected with Atg4B siRNA at 10 uM incubated for 24 hrs by immunoblotting analysis; assay type: functional, cell-based
LNCaP [8] = experiment: Induction of apoptosis in human LNCaP cells assessed as increase in cleaved capase-9 expression at 10 uM preincubated for 2 hrs followed by enzalutamide addition and measured after 24 hrs by Western blotting analysis; assay type: functional, cell-based; conditions: time 26.0 hrs
LNCaP [9] = experiment: Induction of apoptosis in human LNCaP cells assessed as increase in cleaved PARP expression at 10 uM preincubated for 2 hrs followed by enzalutamide addition and measured after 24 hrs by Western blotting analysis; assay type: functional, cell-based; conditions: time 26.0 hrs
LNCaP [10] = experiment: Inhibition of AFM induced autophagy in human LNCaP cells assessed as decrease in autophagic vesicles at 1 uM preincubated for 2 hrs followed by medium change into aminoacid free medium for 3 hrs by DAP green staining based assay; assay type: functional, cell-based; conditions: time 5.0 hrs
LNCaP [11] = experiment: Induction of apoptosis in human LNCaP cells assessed as increase in cleaved PARP level at 5 uM preincubated for 2 hrs followed by apalutamide addition and measured after 24 hrs by immunoblotting analysis; assay type: functional, cell-based; conditions: time 26.0 hrs
Cysteine protease ATG4B [12] = biological target: T1, Cysteine protease ATG4B; experiment: Inhibition of recombinant ATG4B (unknown origin) expressed in Escherichia coli BL21(DE3) pLysS cells assessed as inhibition constant using LC3-GST as substrate incubated for 3 hrs by coomassie brilliant blue staining based assay
LNCaP [13] = experiment: Induction of apoptosis in human LNCaP cells assessed as increase in cleaved PARP level at 5 uM preincubated for 2 hrs followed by abiraterone addition and measured after 24 hrs by immunoblotting analysis; assay type: functional, cell-based; conditions: time 26.0 hrs
LNCaP [14] = experiment: Inhibition of AFM induced autophagy in human LNCaP cells assessed as restoration of p62 expression preincubated for 2 hrs followed by medium change into aminoacid free medium for 24 hrs by immunoblotting analysis; assay type: functional, cell-based; conditions: dose 1-10 µM, time 26.0 hrs, DDE = dose-dependent effect
[15] = Inhibition of AFM induced autophagy in human LNCaP cells assessed as decrease in autophagic vesicles at 5 uM preincubated for 2 hrs followed by medium change into aminoacid free medium for 3 hrs by DAP green staining based assay; assay type: functional; conditions: time 5 hrs
LNCaP [16] = experiment: Induction of apoptosis in human LNCaP cells assessed as increase in cleaved PARP level at 5 uM preincubated for 2 hrs followed by cabazitaxel addition and measured after 24 hrs by immunoblotting analysis; assay type: functional, cell-based; conditions: time 26.0 hrs
LNCaP [17] = experiment: Induction of apoptosis in human LNCaP cells assessed as increase in cleaved PARP level at 5 uM preincubated for 2 hrs followed by enzalutamide addition and measured after 24 hrs by immunoblotting analysis; assay type: functional, cell-based; conditions: time 26.0 hrs
[18] = biological target: T2, Cysteine protease ATG4B (Homo sapiens) (UniProt Q9Y4P1); experiment: Reversible inhibition of recombinant ATG4B (unknown origin) expressed in Escherichia coli BL21(DE3) pLysS cells at 100 uM using LC3-GST as substrate preincubated for 30 mins with 0.3 uM LC3-GST followed by dialysis and again incubated with 3 uM LC3-GST for 15 mins by coomassie brilliant blue staining based assay; conditions: time 45.0 min
T2 sequence (whole entry): T1 sequence (Q9Y4P1 whole entry)

[19] = biological target: T2, Cysteine protease ATG4B (Homo sapiens); experiment: Inhibition of recombinant ATG4B (unknown origin) expressed in Escherichia coli BL21(DE3) pLysS cells at 10 uM using LC3-GST as substrate incubated for 3 hrs by coomassie brilliant blue staining based assay
[20] = biological target: T2, Cysteine protease ATG4B (Homo sapiens); experiment: Inhibition of recombinant ATG4B (unknown origin) expressed in Escherichia coli BL21(DE3) pLysS cells at 20 to 50 uM using LC3-GST as substrate by coomassie brilliant blue staining based assay; conditions: dose 20-50 µM, time 15-180 min, TDE = time-dependent effect
LNCaP [21] = experiment: Inhibition of AFM induced autophagy in human LNCaP cells assessed as restoration of p62 expression at 5 uM by Western blot analysis; assay type: functional, cell-based
LNCaP [22] = experiment: Inhibition of AFM induced autophagy in human LNCaP cells assessed as suppression of autophagosome by DAP green staining based assay; assay type: functional, cell-based
LNCaP [23] = experiment: Inhibition of abiraterone induced autophagy in human LNCaP cells at 10 uM preincubated for 2 hrs followed by abiraterone addition and measured after 24 hrs by DAP green staining based assay; assay type: functional, cell-based; conditions: time 26.0 hrs
LNCaP [24] = experiment: Inhibition of enzalutamide induced autophagy in human LNCaP cells at 10 uM preincubated for 2 hrs followed by enzalutamide addition and measured after 24 hrs by DAP green staining based assay; assay type: functional, cell-based; conditions: time 26.0 hrs
LNCaP [25] = experiment: Induction of apoptosis in human LNCaP cells assessed as increase in cleaved capase-9 expression at 10 uM preincubated for 2 hrs followed by abiraterone addition and measured after 24 hrs by Western blotting analysis; assay type: functional, cell-based; conditions: time 26.0 hrs
LNCaP [26] = experiment: Induction of apoptosis in human LNCaP cells assessed as increase in cleaved PARP expression at 10 uM preincubated for 2 hrs followed by abiraterone addition and measured after 24 hrs by Western blotting analysis; assay type: functional, cell-based; conditions: time 26.0 hrs
[27] = biological target: T2, Cysteine protease ATG4B (Homo sapiens); experiment: Inhibition of recombinant ATG4B (unknown origin) expressed in Escherichia coli BL21(DE3) pLysS cells at 100 uM using LC3-GST as substrate incubated for 3 hrs by coomassie brilliant blue staining based assay

Row | SMILES | IC50 (Cysteine protease ATG4B [1]) [µM] | IC50 (Phospholipase A2) [µM] | Ratio IC50 (Homo sapiens) | further results
1 | CCCCCc1ccc(C(=O)/C=C/C(=O)O)cc1 | 36 | 30 | 200 | –
2 | CCN(CC)CCCC(C)Nc1ccnc2cc(Cl)ccc12 (stereo unspecified) | – | – | – | Activity (LNCaP [2]): Active
3 | CCCCCCCCCCCCCCCCCCCc1ccc(C(=O)/C=C/C(=O)O)cc1 | 73 | 0.35 | 12 | –
4 | CCCCCCCc1ccc(C(=O)/C=C/C(=O)O)cc1 | 26 | 5.9 | 56 | –
5 | CCCCCCCCCc1ccc(C(=O)/C=C/C(=O)O)cc1 | 21 | 8 | 93 | –
6 | CCCCCCCCCCc1ccc(C(=O)/C=C/C(=O)O)cc1 | 13 | 1.6 | 30 | –
7 | CCCCCCCCCCCCCCCCCc1ccc(C(=O)/C=C/C(=O)O)cc1 | 47 | – | – | –
8 | C[C@]12CC[C@H](O)CC1=CC[C@@H]1[C@@H]2CC[C@]2(C)C(c3cccnc3)=CC[C@@H]12 | – | – | – | Activity (LNCaP [3]): Dde; Activity (LNCaP [4]): Active; Activity (LNCaP [5]): Active; Activity (LNCaP [6]): Active; Activity (LNCaP [7]): Active; Activity (LNCaP [8]): Active; Activity (LNCaP [9]): Active
9 | CCCCCCCCCCCCc1ccc(C(=O)/C=C/C(=O)O)cc1 | 13 | 1.3 | 24 | –
10 | CCCCCCCCCCCc1ccc(C(=O)/C=C/C(=O)O)cc1 | 11 | 3.5 | 80 | inhibition (LNCaP [10]): Active; Activity (LNCaP [11]): Active; Ki (Cysteine protease ATG4B [12]): 3.1 µM; Activity (LNCaP [13]): Active; inhibition (LNCaP [14]): Dde; inhibition at 5 µM [15]: 100%; Activity (LNCaP [16]): Active; Activity (LNCaP [17]): Active
11 | CCCCCCCCCCCCCCCc1ccc(C(=O)/C=C/C(=O)O)cc1 | 46 | 5.4 | 29 | –
12 | O=C(O)/C=C/C(=O)c1ccccc1 | 580 | – | – | –
13 | CCCCCCCCCCCCCCCCCCc1ccc(C(=O)/C=C/C(=O)O)cc1 | 12 | 0.049 | 1 | inhibition [18]: Active; inhibition [19]: Active; inhibition [20]: Tde; Ki (Cysteine protease ATG4B [12]): 4.6 µM; inhibition (LNCaP [21]): Active; inhibition (LNCaP [22]): Active; inhibition (LNCaP [23]): Active; inhibition (LNCaP [24]): Active; Activity (LNCaP [25]): Active; Activity (LNCaP [26]): Active; inhibition [27]: Active
14 | CCCCCCCCCCCCCc1ccc(C(=O)/C=C/C(=O)O)cc1 | 21 | 7.1 | 85 | –
15 | CCCc1ccc(C(=O)/C=C/C(=O)O)cc1 | 130 | – | – | –
16 | CCCCCCCCCCCCCCCCCCCCCc1ccc(C(=O)/C=C/C(=O)O)cc1 | 42 | – | – | –
